How the values were obtained:
human FADS1 = target: T1, human FADS1 (Homo sapiens, UniProt O60427); experiment: In vitro FADS1 activity assay (HEK 293 cells with FADS1 BacMam, 13C5-DGLA substrate); format: cell-based; details: in vitro human FADS1 activity assay
T1 construct: expressed in transfected cells; host or cells: HEK 293 cells transduced with FADS1 BacMam (MOI 25)
Method: HEK 293 cells in Dulbecco's Modified Eagle's medium (DMEM), 10% fetal bovine serum (FBS), 1× penicillin-streptomycin-glutamine (PSG) were mixed with FADS1 BacMam or FADS2 BacMam reagents at multiplicity of infection (MOI) ratio of 25 and plated in a in 96-well poly-D-lysine-coated plate. Plates were incubated in a 37° C., 5% CO2 for 24 hours. Cells were washed with DPBS and cells were incubated with 90 ml of compound dilution in DPBS at 5% CO2, 37° C. for 20 minutes. Ten L of the substrate, ^13C5-DGLA (FADS1), or 13C-LA (FADS2) diluted in DPBS were added to the cells and incubated at 5% CO2, 37° C. for 30 minutes (FADS1) or 45 minutes (FADS2). Cells were then washed with DPBS and 50 μL of 2N NaOH were added to each well and incubated in a 65° C. oven for 1 hour for the saponification reaction. […] Samples were then subjected to LC-MS/MS detection for the following analytes for the FADS1 reaction: ^13C5-DGLA and ^13C5-AA or the following analytes for the FADS2 reaction: ^13C18-LA, ^13C18-GLA, ^13C18-DGLA and ^13C18-AA. Samples were injected onto a Poroshell 120 EC-C18 3.0×50 mm, 1.9 um id column (Agilent, Santa Clara, CA).

mouse FADS1 = target: T2, mouse FADS1 (Mus musculus, UniProt Q920L1); experiment: Mouse FADS1 cell-based assay; details: in vitro mouse FADS1 activity assay
T2 sequence (Q920L1 1-447): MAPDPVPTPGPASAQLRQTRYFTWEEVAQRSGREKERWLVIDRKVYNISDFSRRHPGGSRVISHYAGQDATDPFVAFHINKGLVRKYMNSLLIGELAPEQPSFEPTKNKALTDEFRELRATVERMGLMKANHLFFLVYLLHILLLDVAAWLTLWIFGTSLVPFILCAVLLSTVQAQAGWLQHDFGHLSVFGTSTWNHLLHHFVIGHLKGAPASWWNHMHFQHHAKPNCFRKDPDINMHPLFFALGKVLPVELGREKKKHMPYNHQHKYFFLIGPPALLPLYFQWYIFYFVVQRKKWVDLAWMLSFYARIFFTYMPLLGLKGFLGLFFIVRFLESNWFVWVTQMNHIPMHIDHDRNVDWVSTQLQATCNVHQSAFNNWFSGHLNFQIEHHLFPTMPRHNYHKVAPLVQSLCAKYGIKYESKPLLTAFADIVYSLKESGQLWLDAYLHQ
Method: (§1) HEK 293 cells in Dulbecco's Modified Eagle's medium (DMEM), 10% fetal bovine serum (FBS), 1× penicillin-streptomycin-glutamine (PSG) were mixed with FADS1 BacMam or FADS2 BacMam reagents at multiplicity of infection (MOI) ratio of 25 and plated in a in 96-well poly-D-lysine-coated plate. Plates were incubated in a 37° C., 5% CO2 for 24 hours. Cells were washed with DPBS and cells were incubated with […] of compound dilution in DPBS at 5% CO2, 37° C. for 20 minutes. Ten L of the substrate, ^13C5-DGLA (FADS1), or 13C-LA (FADS2) diluted in DPBS were added to the cells and incubated at 5% CO2, 37° C. for 30 minutes (FADS1) or 45 minutes (FADS2). Cells were then washed with DPBS and 50 μL of 2N NaOH were added to each well and incubated in a 65° C. oven for 1 hour for the saponification reaction. After cooling to room temperature, 22 μl of formic acid was added followed by the addition of 113 μl of acetonitrile with 1.5 μM ALA-d14 as the internal standard. Samples were then subjected to LC-MS/MS detection for the following analytes for the FADS1 reaction: ^13C5-DGLA and ^13C5-AA or the following analytes for the FADS2 reaction: ^13C18-LA, ^13C18-GLA, ^13C18-DGLA and ^13C18-AA. […]
(§2) The analyte peak areas were quantified by using the Analyst software (SCIEX, Framingham, MA). The percent of substrate to product conversion relative to untreated control were calculated (percent of control [POC]). […]

human FADS2 = target: T3, human FADS2 (Homo sapiens, UniProt O95864); experiment: In vitro FADS2 activity assay (HEK 293 cells with FADS2 BacMam, 13C-LA substrate); format: cell-based
T3 construct: expressed in transfected cells; host or cells: HEK 293 cells transduced with FADS2 BacMam (MOI 25)
T3 sequence (O95864 1-444): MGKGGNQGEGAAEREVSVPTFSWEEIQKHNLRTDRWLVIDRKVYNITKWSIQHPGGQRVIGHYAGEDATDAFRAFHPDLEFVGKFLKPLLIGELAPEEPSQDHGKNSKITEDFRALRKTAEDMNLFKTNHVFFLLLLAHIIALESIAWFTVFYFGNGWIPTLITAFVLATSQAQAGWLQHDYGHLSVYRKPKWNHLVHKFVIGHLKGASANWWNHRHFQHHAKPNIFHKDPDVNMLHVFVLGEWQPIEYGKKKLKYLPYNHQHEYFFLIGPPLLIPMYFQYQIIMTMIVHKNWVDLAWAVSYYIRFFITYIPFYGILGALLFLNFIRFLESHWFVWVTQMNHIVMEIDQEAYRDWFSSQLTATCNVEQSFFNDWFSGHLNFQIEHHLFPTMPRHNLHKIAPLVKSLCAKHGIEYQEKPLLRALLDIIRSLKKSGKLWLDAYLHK
Method: as §1, §2

FADS2 = target: T4, FADS2 (Mus musculus, UniProt Q9Z0R9); experiment: FADS2 inhibition by SC-26196 in DIO mice, plasma PUFA ratios; format: in vivo
T4 construct: from tissue; host or cells: living DIO mice; plasma GLA/LA and AA/DGLA ratios
T4 sequence (Q9Z0R9 1-444): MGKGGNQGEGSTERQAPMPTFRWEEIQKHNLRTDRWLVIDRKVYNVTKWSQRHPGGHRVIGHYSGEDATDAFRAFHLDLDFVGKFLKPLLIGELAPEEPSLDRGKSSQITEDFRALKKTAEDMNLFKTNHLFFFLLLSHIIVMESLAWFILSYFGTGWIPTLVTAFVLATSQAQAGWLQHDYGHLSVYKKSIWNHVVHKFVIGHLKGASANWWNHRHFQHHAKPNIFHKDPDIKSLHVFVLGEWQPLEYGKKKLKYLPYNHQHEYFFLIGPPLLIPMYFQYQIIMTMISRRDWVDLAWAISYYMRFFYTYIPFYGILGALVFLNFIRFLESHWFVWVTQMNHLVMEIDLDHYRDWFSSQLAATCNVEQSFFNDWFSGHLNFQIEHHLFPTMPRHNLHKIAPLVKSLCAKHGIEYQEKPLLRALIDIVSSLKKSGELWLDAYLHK
Method: FIG. 12 One-way ANOVA with Dunnett's test for multiple comparisons, *P<0.05, **P<0.01, ***P<0.001, ****P<0.0001.
Ten microliter of plasma or PUFA standards diluted in surrogate matrix (60 g/l bovine serum albumin in Dulbecco's phosphate-buffered saline [DPBS]) were mixed with 10 μl of ALA-d14 as the internal stand in a 96-well plate. 100 μl of 2N NaOH was added to the mixture for subsequent saponification at 65° C. for 1 hour. The mixture was then acidified with 50 μl of formic acid followed by two consecutive 500 μl hexane extractions. The organic extracts from the two extractions were combined and the solvent was evaporated under nitrogen gas. Extracts were then resuspended in 250 μl of 90% methanol and analyzed by liquid chromatography with tandem mass spectrometry (LC-MS/MS) for the following PUFAs: LA, GLA, DGLA, and AA, with ALA-d14 as the internal standard. The PUFA peak areas were quantified by using the Analyst software (SCIEX, Framingham, MA).

T1 sequence (O60427 whole entry): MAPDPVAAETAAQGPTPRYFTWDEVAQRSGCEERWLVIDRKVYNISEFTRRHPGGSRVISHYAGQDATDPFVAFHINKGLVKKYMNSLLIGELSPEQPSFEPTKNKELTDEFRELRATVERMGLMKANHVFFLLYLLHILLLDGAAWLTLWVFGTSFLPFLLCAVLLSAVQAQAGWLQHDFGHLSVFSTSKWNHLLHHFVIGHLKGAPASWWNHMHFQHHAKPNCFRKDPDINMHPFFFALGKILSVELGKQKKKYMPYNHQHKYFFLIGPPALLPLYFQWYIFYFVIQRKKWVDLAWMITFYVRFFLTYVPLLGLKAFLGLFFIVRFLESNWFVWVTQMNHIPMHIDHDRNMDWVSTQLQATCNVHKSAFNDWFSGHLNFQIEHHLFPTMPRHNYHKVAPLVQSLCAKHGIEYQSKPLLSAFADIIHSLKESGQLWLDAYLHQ

effect on FADS1 activity (human FADS1): does not affect FADS1 activity
effect on FADS1 activity (mouse FADS1): does not affect FADS1 activity
effect on FADS2 activity (human FADS2): FADS2 specific inhibitor
plasma AA/DGLA ratio (FADS2): increased
plasma GLA/LA ratio (FADS2): affects
Compound: N#CC(CCCN1CCN(/N=C/c2cccnc2)CC1)(c1ccccc1)c1ccccc1 [SC-26196]
